# Source: patent publication US10039764B2, “Treatment and diagnosis of cancer and precancerous conditions using PDE10A inhibitors and methods to measure PDE10A expression” (University of South Alabama, priority 2013, dated 2018)
# Where two headings read alike, the source gives them in different places.
# What was measured:
# [1] = tested on: patients with metastatic disease; settings: Lundholm et al. 1994; cited from earlier work
# [2] = tested on: HT29 human colon tumor cells; test: Growth assay (Cell Titer Glo), HT29; assay type: cell-based
# Text: (§1) All cell lines comprising the NCI-60 cancer cell panel were obtained from the NCI Developmental Therapeutics Program and maintained under the same standard conditions. The human normal colonocyte (NCM460) cell line was purchased from Incell (San Antonio, Tex.) and grown according to the manufacturer's specifications. The human colon adenoma cell line, LT97, was a gift from Dr. Brigitte Marian (Medical University Vienna, Austria) and grown according to the provider's specifications. Human mammary epithelial cells (HMEC) were purchased from Lonzo and grown using culture conditions as recommended by the supplier.
# (§2) Ninety-six (96)-well microtiter plates were seeded at a density of 5,000 cells per well. For drug treatment, cells were treated with compounds or vehicle control, and incubated at 37° C. for 72 hours. For siRNA assays, cells were transfected with siRNA under the same conditions described above. The effect of treatment with inhibitors or siRNA knockdown of PDE10A on growth was measured using the Cell Titer Glo Assay (Promega), which measures viable cell number based on ATP content.
# (§3) Effect of various PDE isozyme inhibitors on the growth of human colon tumor cells HCT116 and HT29 was determined using the Cell Titer Glo Cell Viability Assay (Promega) following 72 hours of treatment.
# (§4) The effect of the inhibitors on the growth of human colon tumor and normal colonocytes was measured using the Cell Titer Glo Cell Viability Assay (Promega) as described above. The inhibitory potency toward purified recombinant phosphodiesterase enzymes was measured using the IMAP Phosphodiesterase Assay as described in the Materials and Methods section.
# [3] = tested on: HCT116 human colon tumor cells; test: Growth assay (Cell Titer Glo), HCT116; assay type: cell-based; settings: for HCT116 colon tumor cell growth, single agents and combination (in words): FIG. 12A
# Text: as §1, §2, §3, §4
# [4] = tested on: SW480 human colon tumor cells; test: Growth assay (Cell Titer Glo), SW480; assay type: cell-based; settings: PDE10 Inhibitors table, read-out: Growth Inhibition IC50, SW-480
# Text: as §1, §2, §4
# other PDE isozymes = settings: reported, read-out: Phosphodiesterase Inhibition, Others, IC50 (reported); cited from earlier work
# PDE7A1 = PDE7A1 (Homo sapiens, UniProt Q13946); settings: @ 3 μM; cited from earlier work
# PDE7A1, sequence (Q13946 whole entry, species assumed): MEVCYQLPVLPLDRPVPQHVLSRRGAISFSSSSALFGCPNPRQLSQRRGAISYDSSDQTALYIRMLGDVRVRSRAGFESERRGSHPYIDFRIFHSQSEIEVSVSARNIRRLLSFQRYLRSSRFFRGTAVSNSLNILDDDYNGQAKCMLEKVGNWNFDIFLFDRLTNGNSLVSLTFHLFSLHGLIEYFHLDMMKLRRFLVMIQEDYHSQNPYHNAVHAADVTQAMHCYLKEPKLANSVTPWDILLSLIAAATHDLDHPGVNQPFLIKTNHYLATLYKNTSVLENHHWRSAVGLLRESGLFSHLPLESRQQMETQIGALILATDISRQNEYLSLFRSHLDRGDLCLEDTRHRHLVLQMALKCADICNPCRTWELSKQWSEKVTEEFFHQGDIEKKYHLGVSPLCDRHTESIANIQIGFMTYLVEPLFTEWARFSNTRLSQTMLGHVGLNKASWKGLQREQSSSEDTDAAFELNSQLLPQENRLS
# PDE3A = biological target: T1, PDE3A (Homo sapiens, UniProt Q14432); settings: reported; substrate column not distinguished; read-out: Phosphodiesterase Inhibition PDE3A IC50 (reported); cited from earlier work
# T1 construct: purchased BPS Biosciences
# T1 sequence (Q14432 whole entry): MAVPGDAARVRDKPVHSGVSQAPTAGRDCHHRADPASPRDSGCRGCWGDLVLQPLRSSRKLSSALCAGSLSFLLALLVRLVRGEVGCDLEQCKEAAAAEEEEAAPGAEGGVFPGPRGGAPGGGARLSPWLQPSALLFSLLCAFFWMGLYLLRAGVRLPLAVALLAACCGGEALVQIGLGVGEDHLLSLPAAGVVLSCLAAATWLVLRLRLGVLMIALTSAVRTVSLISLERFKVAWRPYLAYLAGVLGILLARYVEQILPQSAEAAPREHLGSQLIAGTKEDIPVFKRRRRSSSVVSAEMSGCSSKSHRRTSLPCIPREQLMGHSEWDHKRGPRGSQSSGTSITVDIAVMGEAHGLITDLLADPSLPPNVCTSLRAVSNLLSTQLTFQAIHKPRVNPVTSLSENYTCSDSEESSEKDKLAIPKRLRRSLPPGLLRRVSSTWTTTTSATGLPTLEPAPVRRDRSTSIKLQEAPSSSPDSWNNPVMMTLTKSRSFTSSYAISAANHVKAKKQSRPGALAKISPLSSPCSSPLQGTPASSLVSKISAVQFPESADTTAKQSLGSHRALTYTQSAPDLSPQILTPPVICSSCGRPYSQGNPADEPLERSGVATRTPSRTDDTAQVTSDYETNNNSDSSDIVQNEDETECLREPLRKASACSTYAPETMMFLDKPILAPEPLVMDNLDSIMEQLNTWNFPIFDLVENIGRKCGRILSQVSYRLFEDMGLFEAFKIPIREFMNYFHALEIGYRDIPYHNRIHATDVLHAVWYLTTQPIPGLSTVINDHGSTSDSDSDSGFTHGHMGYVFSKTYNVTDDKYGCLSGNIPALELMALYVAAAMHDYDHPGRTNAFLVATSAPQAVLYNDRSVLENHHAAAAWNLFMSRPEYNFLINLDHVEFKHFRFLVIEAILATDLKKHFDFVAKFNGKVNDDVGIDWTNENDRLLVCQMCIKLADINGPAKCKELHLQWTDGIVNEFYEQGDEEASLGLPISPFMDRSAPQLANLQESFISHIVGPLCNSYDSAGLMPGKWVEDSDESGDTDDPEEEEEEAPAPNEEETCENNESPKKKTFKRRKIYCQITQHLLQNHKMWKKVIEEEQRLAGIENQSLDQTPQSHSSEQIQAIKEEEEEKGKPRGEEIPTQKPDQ
# PDE10A [5] = settings: reported; substrate column not distinguished; read-out: Phosphodiesterase Inhibition PDE10A IC50 (reported); cited from earlier work
# [6] = tested on: NCI-60 cancer cell line panel; test: Growth inhibition in NCI-60 cancer cell line panel; assay type: cell-based, human; settings: FIG. 13
# Experimental: Tumor growth inhibitory activity was measured using a cell viability assay following 72 hours of treatment. Potency values (GI50) as measured in each tumor cell line are shown on the y axis.
# The human colon tumor cell lines, HCT116, HT29, SW480, SW620, colo741, Caco-2, DLD-1, LS174T, and RKO and human breast tumor cell lines, MCF7, T47D, ZR75, MDA-MB-231, HS578T, and MDA-MB-468 were purchased from ATCC and grown under standard cell culture conditions in RPMI 1640 medium containing 5% fetal bovine serum (FBS) at 37° C. in a humidified atmosphere with 5% CO2. All cell lines comprising the NCI-60 cancer cell panel were obtained from the NCI Developmental Therapeutics Program and maintained under the same standard conditions. The human normal colonocyte (NCM460) cell line was purchased from Incell (San Antonio, Tex.) and grown according to the manufacturer's specifications. The human colon adenoma cell line, LT97, was a gift from Dr. Brigitte Marian (Medical University Vienna, Austria) and grown according to the provider's specifications. […]
# Ninety-six (96)-well microtiter plates were seeded at a density of 5,000 cells per well. […] The effect of treatment with inhibitors or siRNA knockdown of PDE10A on growth was measured using the Cell Titer Glo Assay (Promega), which measures viable cell number based on ATP content. […]
# PDE5A = biological target: T2, PDE5A (Homo sapiens, UniProt O76074); test: IMAP fluorescence polarization PDE assay, PDE5A; assay type: biochemical; settings: substrate cGMP; read-out: Phosphodiesterase Inhibition PDE5A (PDE5) cGMP IC50
# T2 construct: purchased BPS Biosciences
# Experimental: (§5) MY5445 was purchased from EMD Millipore. […] Recombinant PDE enzymes were purchased from BPS Biosciences. DMSO was used as the vehicle for testing effects of all compounds.
# (§6) PDE enzymatic activity was measured using IMAP fluorescence polarization assay (Molecular Devices. Inc.). […] For experiments involving cell extracts, 2×10^5 cells per well were plated on a six-well tissue culture plate 72 hours prior to cell lysis.
# as §4
# human colon tumor cells = test: Colon tumor cell growth (Cell Titer Glo), cell line not specified; assay type: cell-based; settings: 72 hours of treatment
# Experimental: as §2, §3
# [7] = tested on: normal colonocytes (NCM460); test: Growth assay (Cell Titer Glo), normal colonocytes NCM460; assay type: cell-based, human; settings: for IC50: Homo sapiens, NCM460
# Text: as §1, §2, §4
# PDE10A [8] = biological target: T3, PDE10A (Homo sapiens, UniProt Q9Y233); test: IMAP fluorescence polarization PDE assay, PDE10A; assay type: biochemical; settings: recombinant enzyme
# T3 construct: other: substrate cGMP; recombinant enzyme; other: substrate cAMP
# T3 sequence (Q9Y233 290-1055 limits assumed): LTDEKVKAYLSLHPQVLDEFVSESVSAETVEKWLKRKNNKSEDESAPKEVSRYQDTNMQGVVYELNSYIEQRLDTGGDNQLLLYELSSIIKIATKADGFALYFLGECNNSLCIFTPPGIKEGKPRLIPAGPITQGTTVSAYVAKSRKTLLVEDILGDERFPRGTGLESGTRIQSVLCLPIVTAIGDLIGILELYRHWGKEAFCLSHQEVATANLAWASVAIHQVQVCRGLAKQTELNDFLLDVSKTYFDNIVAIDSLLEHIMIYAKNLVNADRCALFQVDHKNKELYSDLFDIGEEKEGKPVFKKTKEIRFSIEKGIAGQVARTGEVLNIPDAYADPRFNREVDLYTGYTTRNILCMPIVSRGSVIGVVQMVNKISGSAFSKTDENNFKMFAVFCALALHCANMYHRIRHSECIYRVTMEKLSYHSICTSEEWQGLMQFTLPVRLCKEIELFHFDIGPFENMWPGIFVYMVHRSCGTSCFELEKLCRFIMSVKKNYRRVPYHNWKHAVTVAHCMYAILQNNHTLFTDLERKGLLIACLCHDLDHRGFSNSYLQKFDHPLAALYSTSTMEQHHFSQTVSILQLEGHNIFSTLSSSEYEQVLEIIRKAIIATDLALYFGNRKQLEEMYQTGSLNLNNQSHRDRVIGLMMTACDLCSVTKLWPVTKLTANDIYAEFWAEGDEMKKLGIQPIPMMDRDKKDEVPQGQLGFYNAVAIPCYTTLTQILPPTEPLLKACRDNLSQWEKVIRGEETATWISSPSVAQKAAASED
# Experimental: as §5, §6, §4
# β-catenin and survivin = test: Western blotting of β-catenin and survivin levels in HCT116; assay type: cell-based, human; settings: FIG. 12B
# Experimental: Western blot analysis was performed as described previously (Tinsley, et al., supra). The following antibodies were used to detect specific proteins: PDE2 (GeneTex, 1:1000), PDE3 (Abcam, 1:1000), PDE5 (Cell Signaling, 1:1000), PDE10 (GeneTex, 1:1000), survivin (Cell Signaling, 1:1000), GAPDH (Cell Signaling, 1:5000).
# [9] = tested on: cGMP PDE activity in lysates from HCT116 cells; test: cGMP PDE activity in HCT116 cell lysates (IMAP); assay type: biochemical, human; settings: FIG. 11B
# Experimental: Cell growth was measured by the Cell Titer Glo cell viability assay (Promega) following 72 hours of treatment, while cGMP PDE activity was measuring using the IMAP fluorescence polarization PDE assay (Molecular Devises).
# as §6
# [10] = 72 hours of treatment, PDE isozyme inhibitor table
# [11] = Homo sapiens, HT-29, PDE10 Inhibitors table, read-out: Growth Inhibition IC50, HT-29
# [12] = Homo sapiens, HCT-116, PDE10 Inhibitors table, read-out: Growth Inhibition IC50, HCT-116
# [13] = PDE10 Inhibitors table, read-out: Growth Inhibition IC50, NCM-460
smiles,measurement,setting,value
COc1ccc2c(c1)c(CC(=O)O)c(C)n2C(=O)c1ccc(Cl)cc1 [indomethacin],extension of survival,[1],approximately 9 months
"COc1ccc(C2CNC(=O)C2)cc1OC1CCCC1 (centres unmarked) [Rolipram, rolipram]",Growth Inhibition (IC50/μM) HT29,[2]; [10],Inactive
same,Growth Inhibition (IC50/μM) HCT116,[3]; [10],Inactive
"CN1CC(=O)N2[C@H](c3ccc4c(c3)OCO4)c3[nH]c4ccccc4c3C[C@@H]2C1=O [Tadalafil, tadalafil]",IC50,"[3]; Homo sapiens, HCT-116, 72 hours of treatment, PDE isozyme inhibitor table, read-out: Growth Inhibition (IC50/μM) HCT116",38 µM
CCCCCC[C@@H]([C@@H](C)O)n1cnc2c(N)ncnc21 (racemic) [EHNA],Growth Inhibition (IC50/μM) HT29,[2]; [10],Inactive
same,Growth Inhibition (IC50/μM) HCT116,[3]; [10],Inactive
"O=C1CCc2cc(OCCCCc3nnnn3C3CCCCC3)ccc2N1 [Cilostazol, cilostazol]",Growth Inhibition (IC50/μM) HT29,[2]; [10],Inactive
same,Growth Inhibition (IC50/μM) HCT116,[3]; [10],Inactive
"COc1cc2c(cc1OC)-c1c(-c3cccnc3)ncn1CC2 [Compound no. 7, 8,9-dimethoxy-1-(pyridin-3-yl)-5,6-dihydroimidazo[5,1-a]isoquinoline]",IC50,[4],> 50 µM
same,IC50,other PDE isozymes,> 4 µM
same,Phosphodiesterase Inhibition PDE7A1 (reported),PDE7A1,45%
same,IC50,[2]; [11],> 50 µM
same,IC50,[3]; [12],> 50 µM
same,IC50,PDE3A,0.449 µM
same,IC50,PDE10A [5],0.029 µM
"Cn1cc(-c2ccncc2)c(-c2ccc(OCc3ccc4ccccc4n3)cc2)n1 [PF-2545920, 2-[4-(1-methyl-4-pyridin-4-yl-1H-pyrazol-3-yl)-phenoxymethyl]-quinoline]",tumor cell growth inhibitory activity in the NCI-60 cancer cell line panel (in words),[6],broad range of tumor cell growth inhibitory activity
same,GI50,"[6]; Homo sapiens, 72 hours of treatment, average over panel, read-out: average GI50 value in NCI60 cancer cell line panel",17.7 µM
same,IC50,[4],3.7 µM
same,IC50,[2]; [11],0.95 µM
same,IC50,PDE5A,> 50 µM
same,colon tumor cell growth inhibition (in words),human colon tumor cells,potently inhibited
same,IC50,[3]; [12],8.4 µM
same,growth inhibition in normal colonocytes (in words),"[7]; 72 hours of treatment, FIG. 11D",appreciably less effective
same,IC50,[7]; [13],18.8 µM
"COc1cc(/C=N/NC(=O)C(OC)c2ccc(-n3cccn3)cc2)cc(OC)c1Br (centres unmarked) [Compound no. 4, (E)-2-{4-(1H-pyrazol-1-yl)phenyl}-N′-(4-bromo-3,5-dimethoxybenzylidene)-2-methoxyacetohydrazide]",IC50,"[3]; Homo sapiens, HCT-116, read-out: Growth Inhibition IC50, HCT-116",3.13 µM
"Cc1nc2c3cc(Br)ccc3nc(SCC#N)n2n1 [Compound no. 5, 2-{(9-bromo-2-methyl-[1,2,4]triazolo[1,5-c]quinazolin-5-yl)thio}acetonitrile]",IC50,"PDE10A [8]; substrate cAMP, read-out: Phosphodiesterase Inhibition PDE10A cAMP IC50",0.00866 µM
same,IC50,"PDE10A [8]; substrate cGMP, read-out: Phosphodiesterase Inhibition PDE10A cGMP IC50",0.0089 µM
same,IC50,[3]; [12],9.93 µM
Clc1cccc(Nc2nnc(-c3ccccc3)c3ccccc23)c1 [MY5445],β-catenin and survivin levels in HCT116 colon tumor cells (in words),β-catenin and survivin,reduced
same,IC50,"[2]; 72 hours of treatment, PDE isozyme inhibitor table, read-out: Growth Inhibition (IC50/μM) HT29",11 µM
same,IC50,"[3]; 72 hours of treatment, PDE isozyme inhibitor table, read-out: Growth Inhibition (IC50/μM) HCT116",18 µM
same,"HCT116 colon tumor cell growth, single agents and combination (in words)",[3],suppressed
"COc1ccc(Cc2nccc3cc(OC)c(OC)cc23)cc1OC [Papaverine, papaverine]",cGMP hydrolysis in lysates from HCT116 cells (in words),[9],inhibited
same,IC50,[4],11.2 µM
same,β-catenin and survivin levels in HCT116 colon tumor cells (in words),β-catenin and survivin,reduced
same,IC50,"[2]; Homo sapiens, HT-29, 72 h, read-out: Growth Inhibition (IC50/μM) HT29",13 µM
same,IC50,"[2]; Homo sapiens, HT-29, 72 hours of treatment, FIG. 11, read-out: IC50, growth of HT29 colon tumor cells",13 µM
same,IC50,[2]; [11],24.5 µM
same,"HCT116 colon tumor cell growth, single agents and combination (in words)",[3],suppressed
same,IC50,"[3]; Homo sapiens, HCT-116, 72 h, read-out: Growth Inhibition (IC50/μM) HCT116",9 µM
same,IC50,"[3]; Homo sapiens, HCT-116, 72 hours of treatment, FIG. 11, read-out: IC50, growth of HCT116 colon tumor cells",9 µM
same,IC50,[3]; [12],6.7 µM
same,IC50,"[7]; 72 hours of treatment, FIG. 11, read-out: IC50, growth of normal colonocytes (NCM460)",118 µM
same,IC50,[7]; [13],> 100 µM
same,normal colonocytes (NCM460) less sensitive than colon tumor cell lines,[7]; NCM460 vs HCT116 and HT29,approximately 11 fold
COCc1nc2c([nH]1)c(=O)n(C)c(=O)n2CC(C)C [8-MeoM-IBMX],Growth Inhibition (IC50/μM) HT29,[2]; [10],Inactive
same,Growth Inhibition (IC50/μM) HCT116,[3]; [10],Inactive
